Measurements as given in patent US12617794B2, “GABAA positive allosteric modulator compounds, methods of making, and uses thereof” (NEUROCYCLE THERAPEUTICS, INC., priority 2019, dated 2026).
In brackets after ≈: the same amount, converted by molar mass. Structures can show the parent of a compound that is named as a salt. Where two headings read alike, the source gives them in different places.

Columns and labels:
Format in all cases: physicochemical
[1] = Dynamic vapor sorption (DVS) of salts (38.9); settings: for DVS absorption / moisture: between 0% to 90% RH
Method: DVS was determined using IGA Sorp (Hiden Isochema, UK). The sample was tested at a targeted RH of 0 to 90% full cycle in step mode. The analysis was performed in 10% RH increments.

[2] = One week accelerated stability testing (Example 3)
Method: The stability of Phosphate Polymorphic Form A and Free Base Polymorphic Form A were evaluated under accelerated conditions.

[3] = Solubility in aqueous buffers, SGF, FaSSIF and FeSSIF (Example 15); settings: ~20-25° C., ~24 hours; for solubility thermodynamic: 20 °C, thermodynamic from solid, read-out: Measured Conc.; for Measured Conc. (μg/mL): LOQ: 0.1 μg/mL
Method: About 2 mg of test article was added to a 1.5 mL vials which contained ˜1.0 mL of one medium listed in Table 7 and Table 8, which was then sealed. The mixtures were stirred at ˜20-25° C. for ˜24 hours. After that, the mixture was filtered by 0.45 μm filter membrane and then the supernatant was analyzed by HPLC.

[4] = Intrinsic dissolution rate in SGF (Example 16); settings: 37° C., 100 rpm, linear scope within 2 to 120 min
Method: About 100 mg of Free Base Polymorphic Form A or Phosphate Polymorphic Form A was weighed into the intrinsic dissolution apparatus and the sample compressed for 1 minute with a compression force of ˜4 MPa to form a compacted pellet within the stainless-steel die. All loose powder was removed from the surface of the die. The intrinsic dissolution shaft was connected with the stainless-steel die and tightened so only one surface of the pellet was exposed (surface area=0.496 cm^2). The shaft in the spindle was adjusted to ensure the exposed surface of the compacted tablet was ˜3.8 cm from the bottom of the vessel when lowered. The temperature of chamber water was set at 37° C.±0.5° C., the shaft rotation at 100 rpm and the sampling time points at 2, 5, 10, 15, 30, 45, 60, 120 min. SGF was used as dissolution medium (900 mL). At each time point, solution samples were filtered, and the supernatant was analyzed by HPLC-UV.

[5] = Solid stability of free base and salts at 60° C. and 40° C./75% RH (38.3, Example 48); settings: for chemical stability / physical stability (crystal form by XRPD): 60° C. and 40° C./75% RH for 7 days; for Crystal form day 7: XRPD
Method: Samples of TPA023B Free Base, TPA023B chloride, TPA023B besylate, and TPA023B sulfate were mounted on stability at 60° C. and 40° C./75% RH for up to 7 days. At day-0, day-3 and day-7, the samples were dissolved in diluent to prepare solutions at 0.5 mg/mL for HPLC analysis. Solid samples were analyzed by XRPD to determine the crystal form.
Solid samples were examined using D8 ADVANCE X-ray diffractometer (Bruker). The diffractometer was equipped with LynxEye detector. In XRPD analysis, samples were scanned from 3 to 40° 2θ at a step of 0.02° 2θ. The tube voltage and current were 40 KV and 40 mA, respectively.

[6] = Reactive crystallization with 1.1 eq phosphoric acid (Example 65); settings: stirred at RT 7 hours
Method: About 25 mg of Free Base Form H was dissolved or suspended in ˜1 mL of a selected solvent. […] The solid was isolated and characterized.
Free Base Form H was dissolved or suspended in ˜1 mL selected solvent. […] Solid was isolated and characterized. No new phosphate Form was obtained in reactive crystallization under this method.

[7] = Slurry of chloride or besylate salt in EA or heptane at 50° C. overnight; settings: slurried in EA or heptane at 50° C. overnight
[8] = 40° C./75% RH, listed as Free base (Form A)
[9] = 60° C., listed as Free base (Form A)

## CC(C)(O)c1cnn2c(-c3ccc(F)c(-c4c(F)cccc4C#N)c3)cnc2n1 [Chloride Form B, 2′,6-difluoro-5′-[3-(1-hydroxy-1-methylethyl)-imidazo[1,2-b][1,2,4]triazin-7-yl]biphenyl-2-carbonitrile]
[1]
  XRPD after DVS: No XRPD change after DVS.
  DVS absorption / moisture: DVS: 0-1.4691% absorption

## CC(C)(O)c1cnn2c(-c3ccc(F)c(-c4c(F)cccc4C#N)c3)cnc2n1 [Free Base Polymorphic Form A, 2′,6-difluoro-5′-[3-(1-hydroxy-1-methylethyl)-imidazo[1,2-b][1,2,4]triazin-7-yl]biphenyl-2-carbonitrile]
[2]; 40° C./75% RH (open), 1 week
  Assay (%): 102.35%
  Purity (%): 98.64%
[2]; 80° C. (open), 1 week
  Assay (%): 101.60%
  Purity (%): 98.62%
[2]; Initial
  Purity (%): 98.72%
[2]; Initial, assay criterion 95%-105%
  Assay (%): 105.51%
[2]; Light, ~50 h
  Assay (%): 104.28%
  Purity (%): 98.60%
[3]; Purified water
  Measured Conc.: 0.14 µg/mL
[3]; fasted-state simulated intestinal fluid (FaSSIF), fassif, FaSSIF
  solubility thermodynamic: 2.11 µg/mL (≈ 5.39 µM)
[3]; fed-state simulated intestinal fluid (FeSSIF), fessif, FeSSIF
  solubility thermodynamic: 9.63 µg/mL (≈ 24.6 µM)
[3]; pH 1.2 Hydrochloric Acid Buffer (50 mM)
  Measured Conc.: 9.77 µg/mL
[3]; pH 3.0 citrate buffer (100 mM)
  Measured Conc. (μg/mL): <LOQ
[3]; pH 4.5 citrate buffer (100 mM)
  Measured Conc. (μg/mL): <LOQ
[3]; pH 7.4 PBS (50 mM)
  Measured Conc. (μg/mL): <LOQ
[3]; pH 9.0 USP Buffer (50 mM)
  Measured Conc. (μg/mL): <LOQ
[3]; simulated gastric fluid (SGF), simulated gastric fluid, SGF
  solubility thermodynamic: 1.38 µg/mL (≈ 3.53 µM)
[4]
  intrinsic dissolution rate: 5×10^−5 mg·cm^2·min^−1
[5]; [8]
  HPLC Purity (%) day 3: 98.2%
  HPLC Purity (%) day 7: 98.2%
[5]
  chemical stability: chemically stable
[5]; listed as TPA023B free base
  physical stability (crystal form by XRPD): physically stable
[5]; listed as TPA-23B free base
  physical stability (crystal form by XRPD): remained unchanged
[5]; [9]
  HPLC Purity (%) day 3: 98.1%
  HPLC Purity (%) day 7: 98.3%
[5]; listed as Free base (Form A)
  HPLC Purity (%) day 0: 98.1%

## CC(C)(O)c1cnn2c(-c3ccc(F)c(-c4c(F)cccc4C#N)c3)cnc2n1 [Free Base Polymorphic Form H, 2′,6-difluoro-5′-[3-(1-hydroxy-1-methylethyl)-imidazo[1,2-b][1,2,4]triazin-7-yl]biphenyl-2-carbonitrile]
[6]; solvent 1,4-dioxane
  Result (solid form obtained): Phosphate Form A
[6]; solvent ACN
  Result (solid form obtained): Phosphate Form A
[6]; solvent Acetone
  Result (solid form obtained): Phosphate Form A
[6]; solvent BAC
  Result (solid form obtained): Phosphate Form A
[6]; solvent Cyclohexanone
  Result (solid form obtained): Phosphate Form A
[6]; solvent DCM
  Result (solid form obtained): Phosphate Form A
[6]; solvent DEE
  Result (solid form obtained): Phosphate Form A
[6]; solvent EA
  Result (solid form obtained): Phosphate Form A
[6]; solvent IPAC
  Result (solid form obtained): Phosphate Form A
[6]; solvent MEK
  Result (solid form obtained): Phosphate Form A
[6]; solvent MTBE
  Result (solid form obtained): Phosphate Form A
[6]; solvent N-pentane
  Result (solid form obtained): Phosphate Form A
[6]; solvent PPG 2000
  Result (solid form obtained): Phosphate Form A
[6]; solvent Trichloromethane
  Result (solid form obtained): Phosphate Form A
[6]; solvent polysorbate 80
  Result (solid form obtained): Phosphate Form A

## CC(C)(O)c1cnn2c(-c3ccc(F)c(-c4c(F)cccc4C#N)c3)cnc2n1 [TPA023B Besylate (Form A), 2′,6-difluoro-5′-[3-(1-hydroxy-1-methylethyl)-imidazo[1,2-b][1,2,4]triazin-7-yl]biphenyl-2-carbonitrile]
[5]; 40° C./75% RH
  HPLC Purity (%) day 3: 98.8%
  HPLC Purity (%) day 7: 98.8%
  Crystal form day 7: three extra peaks
[5]; 40° C./75% RH, listed as TPA-23B besylate
  Crystal form day 7: three extra peaks
[5]
  chemical stability: chemically stable
  HPLC Purity (%) day 0: 98.8%
[5]; 60° C.
  HPLC Purity (%) day 3: 98.8%
  HPLC Purity (%) day 7: 98.8%
[1]
  XRPD after DVS: No XRPD change after
  DVS absorption / moisture: DVS: 0-1.047% moisture
[7]
  crystal form after slurry: remained unchanged

## CC(C)(O)c1cnn2c(-c3ccc(F)c(-c4c(F)cccc4C#N)c3)cnc2n1 [TPA023B Sulfate (Form A), 2′,6-difluoro-5′-[3-(1-hydroxy-1-methylethyl)-imidazo[1,2-b][1,2,4]triazin-7-yl]biphenyl-2-carbonitrile]
[5]; 40° C./75% RH
  HPLC Purity (%) day 3: 98.8%
  HPLC Purity (%) day 7: 98.8%
[5]
  chemical stability: chemically stable
  physical stability (crystal form by XRPD): physically stable
  HPLC Purity (%) day 0: 98.8%
[5]; listed as TPA-23B sulfate
  physical stability (crystal form by XRPD): remained unchanged
[5]; 60° C.
  HPLC Purity (%) day 3: 98.8%
  HPLC Purity (%) day 7: 98.8%
[1]
  XRPD after DVS: No XRPD change after
  hygroscopicity: light hygroscopicity
  DVS absorption / moisture: DVS: 0-1.206% moisture

## CC(C)(O)c1cnn2c(-c3ccc(F)c(-c4c(F)cccc4C#N)c3)cnc2n1 [TPA023B chloride (Form C), 2′,6-difluoro-5′-[3-(1-hydroxy-1-methylethyl)-imidazo[1,2-b][1,2,4]triazin-7-yl]biphenyl-2-carbonitrile]
[5]; 40° C./75% RH
  HPLC Purity (%) day 3: 98.8%
  HPLC Purity (%) day 7: 98.7%
[5]
  chemical stability: chemically stable
  physical stability (crystal form by XRPD): physically stable
  HPLC Purity (%) day 0: 97.6%
[5]; listed as TPA-23B chloride
  physical stability (crystal form by XRPD): remained unchanged
[5]; 60° C.
  HPLC Purity (%) day 3: 98.4%
  HPLC Purity (%) day 7: 98.4%
[7]
  crystal form after slurry: remained unchanged
